Source: US20240043860A1, “NOVEL HYDROXYPHENYLPYRUVATE DIOXYGENASE POLYPEPTIDES AND METHODS OF USE THEREOF” (Syngenta Crop Protection AG, priority 2020, published 2024)

Tests used:
[1] = system: HPPD variant AVESA V201 (SEQ ID NO: 8); assay type: biochemical, Avena sativa; conditions: SEQ ID NO: 8 compared to control SEQ ID NO: 122
Method: 25 ul of the overnight cultures were inoculated into fresh 96-deepwell block containing 1 ml Formedium Autoinduction Media (AIM). The AIM cultures were grown for 3h at 37° C. (900rpm) and then transferred to 20° C. overnight (900rpm) to allow protein expression. The overnight cultures were centrifuged and 500 ul of Cellytic B (Sigma Aldrich) was added to resuspend the cell pellets. The coupled HGO assay (Siehl et al, 2014) is used to generate IC50 values for the HPPD variants of interest.
E. coli BL21 (DE3) cells were transformed with a pET24a vector containing a C-terminally his-tagged Arabidopsis HGO gene, grown and induced overnight as described for the HPPD variants above. The cell pellet was resuspended in phosphate buffered saline at pH 7.4 containing 10% Glycerol, 1mm Tris[2-carboxyethyl] phosphine-HCl (TCEP) plus 30 mM Imidazole and lysed using lysozyme/benzonase. The extract was clarified by low speed centrifugation and purified in the same buffer down a 1 ml His Gravitrap column. The bound HGO was eluted in 0.25M imidazole and the fractions pooled and beaded into liquid nitrogen. All procedures apart from the centrifugation and beading steps were carried out under a nitrogen atmosphere.
The coupled HGO assay is carried out by adding 10 ul of HPPD extract to a 96-well plate and then adding 40 ul of reaction buffer (50 mM Bis Tris Propane, pH7.0, 25 mM sodium-L-ascorbate, 400μM mercaptoethanol, 50 μM Fe(II)SO4). The plates are left to incubate for 5 minutes on ice. […] 200 ul of HPP/HGO (197 μM hydroxyphenylpyruvic acid, 16 μl/ml Homogentisic Acid Oxidase in reaction buffer as described above) buffer is then added to the well and the reaction is regularly monitored (e.g. every 30 seconds-5 minutes) for absorbance at 330 nm for a given time period (e.g., for between 15-60 minutes). The data can then be used to calculate the IC50 value for each HPPD variant of interest.

[2] = system: transgenic tobacco plants expressing mutant HPPD SEQ ID NO: 9; experiment: spray test, herbicidal damage scoring; assay type: in vivo
Method: Avena sativa HPPD or orthologues and variants thereof, for example SEQ IDs 1-63 and 122-127, were expressed in transgenic tobacco. DNA sequences that encode these polypeptides (optimized for tobacco or, optionally, codon optimized according to a target crop such as soybean) were prepared synthetically. Each sequence was designed to include a 5′ fusion with TMV omega 5′ leader sequence such that they are flanked at the 5′ end with XhoI and at the 3′ end with KpnI to facilitate direct cloning into a suitable binary vector for Agrobacterium-based plant transformation.
In one example, the TMV omega 5′ leader and a HPPD encoding gene of interest is excised using XhoI/KpnI and cloned into similarly digested binary vector pBIN 19 (Bevan, Nucl. Acids Res. (1984) behind a double enhanced 35S promoter ahead of a NOS 3′ transcription terminator and then transformed into E. coli DH5 alpha competent cells. DNA recovered from the E. coli is used to transform Agrobacterium tumefaciens LBA4404, and transformed bacteria are selected on media contain rifampicin and kanamycin. Tobacco tissue is subjected to Agrobacterium-mediated transformation using methods well described in the art or as described herein. For example, a master plate of Agrobacterium tumefaciens containing the HPPD expressing the binary vector is used to inoculate 10 ml LB (L broth) containing 100 mg/l Rifampicin plus 50 mg/l Kanamycin using a single bacterial colony. This is incubated overnight at 28° C. shaking at 200 rpm. This entire overnight culture is used to inoculate a 50 ml volume of LB containing the same antibiotics. Again this is cultured overnight at 28° C. shaking at 200 rpm. […]
Plants are assessed for damage and scored at, for example, 7 and 14 days after treatment (DAT). […]
Plants of events showing the least damage are grown to flowering, then bagged and allowed to self. […] Single copy events amongst the Ti plant lines are identified by their 3:1 segregation ratio (with respect to kanamycin and/or herbicide) and by quantitative RT-PCR. […] HPPD expression levels were monitored by Western analysis. […]

Compound | increase of the IC50 value [1] | damage ([2]; 2000 g/ha, SEQ ID 9 plants compared to plants expressing SEQ IDs 122, 124 or 125) | tolerance ([2]; SEQ ID 9 plants, 100 g/ha (Table 3.4)) | tolerance compared to plants expressing SEQ ID 125 ([2]; SEQ ID 9 plants, 200 g/ha (Table 3.4))
Cn1nnnc1NC(=O)c1ccc(C(F)(F)F)nc1-n1cncn1 [Herbicide D, N-(1-methyltetrazol-5-yl)-2-(1,2,4-triazol-1-yl)-6-(trifluoromethyl)pyridine-3-carboxamide] | ~80 fold | significantly reduced damage | – | –
COc1ccc(-n2nc(C)cc(C(=O)C3C(=O)CCCC3=O)c2=O)cc1OC [Herbicide C, dioxopyritrione] | – | – | display tolerance | higher tolerance
